Measured values as given in patent US11767322B2 (BRISTOL-MYERS SQUIBB COMPANY, priority 2020, dated 2023).
Read-outs that look alike come from different tables or passages of the source.

Legend:
[1] = tested on: MLKL phosphorylation in HT29-L23 human colorectal adenocarcinoma cells; assay: MLKL phosphorylation high-content assay; format: cell-based
[2] = target: T1, His-GST-TVMV-hRIPK1(1-324) (Homo sapiens, UniProt Q13546); assay: biochemical; format: binding
T1 construct: The coding region of human RIPK1(1-324) flanked by NdeI site at 5′ end; made in house; host or cells: Spodoptera frugiperda Sf9 insect cells (baculovirus, Bac-to-Bac)
T1 sequence (Q13546 1-324): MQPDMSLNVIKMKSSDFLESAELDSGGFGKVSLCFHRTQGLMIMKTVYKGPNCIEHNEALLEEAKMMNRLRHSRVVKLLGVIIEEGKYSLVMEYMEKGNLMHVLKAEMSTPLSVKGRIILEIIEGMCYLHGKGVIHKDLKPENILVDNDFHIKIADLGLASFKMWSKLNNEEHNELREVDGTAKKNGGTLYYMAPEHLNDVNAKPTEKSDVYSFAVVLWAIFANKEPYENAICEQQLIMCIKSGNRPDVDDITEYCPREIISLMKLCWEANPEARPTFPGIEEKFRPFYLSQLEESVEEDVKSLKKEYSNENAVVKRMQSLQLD

[3] = target: GST-tagged PIK3Cδ in complex with PIK3R1 (Homo sapiens, UniProt O00329); assay: PI3Kδ HTRF binding assay; conditions: read-out: PIK3CD IC50
[4] = read-out: pMLKL IC50, HT29-L23 cells, necroptosis induced with TNFα, SMAC mimetic and Z-VAD, 6 h, maximal inhibition defined by Nec1s
[5] = HTRF probe displacement, 1 h at rt, read-out: RIPK1 IC50
[6] = HTRF probe displacement, 1 h at rt
[7] = Homo sapiens, 6 h, read-out: pMLKL IC50, HT29-L23 cells, necroptosis induced with TNFα, SMAC mimetic and Z-VAD, 6 h, maximal inhibition defined by Nec1s
[8] = HT29-L23 cells, necroptosis induced with TNFα, SMAC mimetic and Z-VAD, 6 h, maximal inhibition defined by Nec1s, read-out: pMLKL IC50

Chain of GST-tagged PIK3Cδ in complex with PIK3R1 (O00329 whole entry): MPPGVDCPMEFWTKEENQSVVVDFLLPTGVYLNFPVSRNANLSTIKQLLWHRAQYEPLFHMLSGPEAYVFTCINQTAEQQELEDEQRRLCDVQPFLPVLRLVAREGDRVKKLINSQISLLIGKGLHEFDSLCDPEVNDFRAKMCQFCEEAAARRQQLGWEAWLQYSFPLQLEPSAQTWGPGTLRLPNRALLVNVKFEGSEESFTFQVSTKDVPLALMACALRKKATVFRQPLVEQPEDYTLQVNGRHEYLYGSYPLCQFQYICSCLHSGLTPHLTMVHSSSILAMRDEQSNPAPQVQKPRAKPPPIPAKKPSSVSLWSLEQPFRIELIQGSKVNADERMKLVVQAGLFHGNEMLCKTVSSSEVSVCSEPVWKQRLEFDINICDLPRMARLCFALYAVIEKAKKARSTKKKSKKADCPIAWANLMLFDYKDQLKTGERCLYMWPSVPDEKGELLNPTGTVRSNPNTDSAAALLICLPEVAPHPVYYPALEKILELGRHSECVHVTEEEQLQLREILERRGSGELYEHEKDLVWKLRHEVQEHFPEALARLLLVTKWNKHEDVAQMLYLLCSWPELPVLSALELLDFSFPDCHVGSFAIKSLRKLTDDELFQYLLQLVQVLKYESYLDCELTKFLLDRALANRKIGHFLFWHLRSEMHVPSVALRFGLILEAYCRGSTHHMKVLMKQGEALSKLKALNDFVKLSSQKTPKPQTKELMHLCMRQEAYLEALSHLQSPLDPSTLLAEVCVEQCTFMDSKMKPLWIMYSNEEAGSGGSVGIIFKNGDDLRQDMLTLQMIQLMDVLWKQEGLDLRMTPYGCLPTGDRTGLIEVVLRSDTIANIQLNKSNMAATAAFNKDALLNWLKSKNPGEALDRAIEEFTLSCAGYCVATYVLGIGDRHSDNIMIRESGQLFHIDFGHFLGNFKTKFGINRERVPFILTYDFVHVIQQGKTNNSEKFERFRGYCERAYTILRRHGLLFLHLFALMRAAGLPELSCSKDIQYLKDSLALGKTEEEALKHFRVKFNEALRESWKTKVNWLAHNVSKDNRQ
Chain of GST-tagged PIK3Cδ in complex with PIK3R1 (P27986 whole entry partner): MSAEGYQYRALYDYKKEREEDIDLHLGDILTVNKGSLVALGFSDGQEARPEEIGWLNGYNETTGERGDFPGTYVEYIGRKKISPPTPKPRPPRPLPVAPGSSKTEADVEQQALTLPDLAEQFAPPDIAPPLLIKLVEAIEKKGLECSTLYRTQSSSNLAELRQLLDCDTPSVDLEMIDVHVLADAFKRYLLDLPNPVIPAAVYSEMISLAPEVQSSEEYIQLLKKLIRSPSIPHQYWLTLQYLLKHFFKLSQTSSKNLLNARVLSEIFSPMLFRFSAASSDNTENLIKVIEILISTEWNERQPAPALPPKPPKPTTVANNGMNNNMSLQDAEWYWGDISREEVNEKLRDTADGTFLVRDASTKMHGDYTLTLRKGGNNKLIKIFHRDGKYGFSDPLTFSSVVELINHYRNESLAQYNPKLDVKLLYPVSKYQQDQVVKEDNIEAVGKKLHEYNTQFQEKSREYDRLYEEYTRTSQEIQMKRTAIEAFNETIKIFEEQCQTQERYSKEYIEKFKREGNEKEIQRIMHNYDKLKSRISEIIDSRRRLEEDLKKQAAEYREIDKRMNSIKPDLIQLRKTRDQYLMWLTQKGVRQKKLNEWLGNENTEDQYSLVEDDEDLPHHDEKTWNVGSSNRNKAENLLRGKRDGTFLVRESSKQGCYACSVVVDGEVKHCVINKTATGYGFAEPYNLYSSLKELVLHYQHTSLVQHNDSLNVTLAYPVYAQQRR

SMILES | IC50 [1, 4] [nM] | IC50 [2, 5] [nM] | IC50 [3, 6] [nM] | IC50 [1, 7] [nM] | also measured
Cc1ccc(-c2ccn3nc(N)nc3c2)c(F)c1C(=O)NC(CF)CC(O)c1ccc(F)cc1 (single isomer, unassigned) [Example 26, 3-(2-amino-[1,2,4]triazolo[1,5-a]pyridin-7-yl)-2-fluoro-N-(1-fluoro-4-(4-fluorophenyl)-4-hydroxybutan-2-yl)-6-methylbenzamide] | 696 | 233 | > 15000 | – | –
[2H]C([2H])(CC([2H])(O)c1ccc(Cl)cc1)NC(=O)c1c(C)ccc(-c2ccn3nc(N)nc3c2)c1F (single isomer, unassigned) [Example 54, 3-(2-amino-[1,2,4]triazolo[1,5-a]pyridin-7-yl)-N-(3-(4-chlorophenyl)-3-hydroxypropyl-1,1,3-d3)-2-fluoro-6-methylbenzamide] | 1 | 2.7 | > 15000 | – | –
Cc1c(F)cc(-c2ccn3nc(N)nc3c2)cc1C(=O)NCC(F)(F)C(O)c1ccc(F)cc1 (single isomer, unassigned) [Example 232, 5-(2-amino-[1,2,4]triazolo[1,5-a]pyridin-7-yl)-N-(2,2-difluoro-3-(4-fluorophenyl)-3-hydroxypropyl)-3-fluoro-2-methylbenzamide] | 3 | 4.5 | > 15000 | – | –
Cc1c(F)cc(-c2ccn3nc(N)nc3c2)cc1C(=O)NCC(F)(F)C(O)c1ccc(F)cc1 (single isomer, unassigned) [Example 231, 5-(2-amino-[1,2,4]triazolo[1,5-a]pyridin-7-yl)-N-(2,2-difluoro-3-(4-fluorophenyl)-3-hydroxypropyl)-3-fluoro-2-methylbenzamide] | 1.2 | 2 | > 15000 | – | –
Cc1ccc(-c2ccn3nc(N)nc3c2)c(F)c1C(=O)NCCC(O)c1ccc(C(F)(F)F)cc1 (single isomer, unassigned) [Example 56, 3-(2-amino-[1,2,4]triazolo[1,5-a]pyridin-7-yl)-2-fluoro-N-(3-hydroxy-3-(4-(trifluoromethyl)phenyl)propyl)-6-methylbenzamide] | 0.4 | 4.5 | > 15000 | – | –
Nc1nc2cc(-c3ccc(Cl)c(C(=O)NCC(F)(F)C(O)c4cc(F)cc(F)c4)c3F)ccn2n1 (centres unmarked) [Example 189, 3-(2-amino-[1,2,4]triazolo[1,5-a]pyridin-7-yl)-6-chloro-N-(3-(3,5-difluorophenyl)-2,2-difluoro-3-hydroxypropyl)-2-fluorobenzamide] | 38 | 11 | 5600 | – | –
Cc1ccc(-c2ccn3nc(N)nc3c2)c(F)c1C(=O)NCCC(O)c1ccccc1F (single isomer, unassigned) [Example 70, 3-(2-amino-[1,2,4]triazolo[1,5-a]pyridin-7-yl)-2-fluoro-N-(3-(2-fluorophenyl)-3-hydroxypropyl)-6-methylbenzamide] | 8.1 | 11 | > 15000 | – | –
Cc1ccc(-c2ccn3nc(N)nc3c2)c(F)c1C(=O)NCCC(O)c1ccc(Cl)cc1F (single isomer, unassigned) [Example 68, 3-(2-amino-[1,2,4]triazolo[1,5-a]pyridin-7-yl)-N-(3-(4-chloro-2-fluorophenyl)-3-hydroxypropyl)-2-fluoro-6-methylbenzamide] | – | 3.6 | > 15000 | 0.6 | –
Cc1ccc(-c2ccn3nc(N)nc3c2)c(F)c1C(=O)NCC(F)(F)C(C)(O)c1ccc(Cl)cc1 (single isomer, unassigned) [Example 222, 3-(2-amino-[1,2,4]triazolo[1,5-a]pyridin-7-yl)-N-(3-(4-chlorophenyl)-2,2-difluoro-3-hydroxybutyl)-2-fluoro-6-methylbenzamide] | 1 | 3.2 | > 15000 | – | –
Cc1ccc(-c2ccn3nc(N)nc3c2)c(F)c1C(=O)NCCC(O)c1cccc(Cl)c1 (centres unmarked) [Example 43, 3-(2-amino-[1,2,4]triazolo[1,5-a]pyridin-7-yl)-N-(3-(3-chlorophenyl)-3-hydroxypropyl)-2-fluoro-6-methylbenzamide] | – | 3.2 | – | 2.6 | IC50 [3]: 11000 nM
Cc1ccc(-c2ccn3nc(N)nc3c2)c(F)c1C(=O)NCCC(O)c1ccc(F)cc1 (single isomer, unassigned) [Example 51, 3-(2-amino-[1,2,4]triazolo[1,5-a]pyridin-7-yl)-2-fluoro-N-(3-(4-fluorophenyl)-3-hydroxypropyl)-6-methylbenzamide] | 1.8 | 3.7 | > 15000 | – | –
Nc1nc2cc(-c3ccc(Cl)c(C(=O)NC[C@H](F)[C@H](O)c4ccc(F)cc4)c3F)ccn2n1 (single isomer, unassigned) [Example 299] | – | 16 | 10000 | 37 | –
CC(O)(c1ccc(Cl)cc1)C(F)(F)CNC(=O)c1c(Cl)ccc(-c2ccn3nc(N)nc3c2)c1F (single isomer, unassigned) [Example 224, 3-(2-amino-[1,2,4]triazolo[1,5-a]pyridin-7-yl)-6-chloro-N-(3-(4-chlorophenyl)-2,2-difluoro-3-hydroxybutyl)-2-fluorobenzamide] | 4.1 | 5.2 | > 15000 | – | –
COc1c(-c2ccc(C)c(C(=O)NCC(F)(F)C(O)c3ccc(F)cc3)c2F)ccn2nc(N)nc12 (single isomer, unassigned; enantiomer 1) [Example 135] | – | – | > 15000 | – | IC50 [1, 8]: 0.5 nM; IC50 ([2]; RIPK1 IC50): 5.6 nM
[2H]C([2H])(CC([2H])(O)c1ccc(Cl)cc1)NC(=O)c1c(C)ccc(-c2ccn3nc(N)nc3c2)c1F (racemic) [Example 14, 3-(2-amino-[1,2,4]triazolo[1,5-a]pyridin-7-yl)-N-(3-(4-chlorophenyl)-3-hydroxypropyl-1,1,3-d3)-2-fluoro-6-methylbenzamide] | – | 1.1 | > 15000 | 1.1 | –
Cc1cc(F)c(-c2ccn3nc(N)nc3c2)c(F)c1C(=O)NCC[C@H](O)c1ccc(Cl)cc1 [Example 277, (S)-3-(2-amino-[1,2,4]triazolo[1,5-a]pyridin-7-yl)-N-(3-(4-chlorophenyl)-3-hydroxypropyl)-2,4-difluoro-6-methylbenzamide] | – | 36 | > 15000 | 69 | –
Cc1ccc(-c2ccn3nc(N)nc3c2)c(F)c1C(=O)NCC(F)(F)C(O)c1ccc(F)c(F)c1 (single isomer, unassigned) [Example 198, 3-(2-amino-[1,2,4]triazolo[1,5-a]pyridin-7-yl)-N-(3-(3,4-difluorophenyl)-2,2-difluoro-3-hydroxypropyl)-2-fluoro-6-methylbenzamide] | 1.3 | 6.4 | > 15000 | – | –
Cc1cc(F)c(-c2ccn3nc(N)nc3c2)cc1C(=O)NCCC(O)c1ccc(F)cc1 (single isomer, unassigned) [Example 10, 5-(2-amino-[1,2,4]triazolo[1,5-a]pyridin-7-yl)-4-fluoro-N-(3-(4-fluorophenyl)-3-hydroxypropyl)-2-methylbenzamide] | 2.5 | 9.4 | > 15000 | – | IC50 ([1]; read-out: pMLKL IC50, Table 22, compounds of the present invention): 2.5 nM; IC50 ([2]; Table 22, compounds of the present invention, read-out: RPIK1 IC50): 9.4 nM
Nc1nc2cc(-c3ccc(Cl)c(C(=O)NCC(F)(F)C(O)c4cc(F)cc(F)c4)c3F)ccn2n1 (centres unmarked) [Example 188, 3-(2-amino-[1,2,4]triazolo[1,5-a]pyridin-7-yl)-6-chloro-N-(3-(3,5-difluorophenyl)-2,2-difluoro-3-hydroxypropyl)-2-fluorobenzamide] | 0.3 | 6.3 | 9400 | – | –
Cc1ccc(-c2ccn3nc(N)nc3c2)c(F)c1C(=O)NCCCC1CCCCC1 [Example 52, 3-(2-amino-[1,2,4]triazolo[1,5-a]pyridin-7-yl)-N-(3-cyclohexylpropyl)-2-fluoro-6-methylbenzamide] | – | 0.3 | > 15000 | 1.1 | –
Cc1ccc(-c2ccn3nc(N)nc3c2)c(F)c1C(=O)NCCC(O)C1CCCCC1 (single isomer, unassigned) [Example 41, 3-(2-amino-[1,2,4]triazolo[1,5-a]pyridin-7-yl)-N-(3-cyclohexyl-3-hydroxypropyl)-2-fluoro-6-methylbenzamide] | 7.7 | 5.4 | > 15000 | – | –
Cc1ccc(-c2ccn3nc(N)nc3c2)c(F)c1C(=O)NCC(F)(F)[C@H](O)c1ccc(F)cc1 (single isomer, unassigned) [Example 31] | – | 2.4 | > 15000 | 0.8 | –
Cc1ccc(-c2ccn3nc(N)nc3c2)c(F)c1C(=O)NCC(F)(F)C(O)c1ccc(F)cn1 (centres unmarked) [Example 115, 3-{2-amino-[1,2,4]triazolo[1,5-a]pyridin-7-yl}-N-[2,2-difluoro-3-(5-fluoropyridin-2-yl)-3-hydroxypropyl]-2-fluoro-6-methylbenzamide] | – | 3.6 | – | – | IC50 [1, 8]: 1.4 nM; IC50 [3]: > 15000 nM
